Measurements from patent publication US9428732B2, “Compositions and methods for differentiating pluripotent stem cells into primitive blood cells and uses thereof” (Primorigen Biosciences, Inc., priority 2011, dated 2016).

Tests used:
[1] = test system: pluripotent stem cell differentiation cultures; assay: Quantitative gene expression analysis during differentiation (Day 0, 4, 8, 12, 15); format: cell-based, human; details: for expression of SCL: FIG. 6M; for expression of FOXF1: FIG. 6E; for expression of FOXC1: FIG. 6F
Text: RNA from the pluripotent stem cell differentiation cultures was harvested at multiple time points corresponding to stages of development from pluripotent stem cells to hematopoietic lineages during in vitro culture. Cells were lysed using Trizol (Life Technologies, Carlsbad Calif.), and RNA was isolated according to the manufacturer's specifications. A cDNA library was reverse transcribed by the High Capacity RNA-to-cDNA Kit from Applied Biosystems (Life Technologies, Carlsbad, Calif.). PCR products were amplified for 40 cycles using primers designed for the gene of interest.
Gene expression studies were carried out to determine expression of key genes for the major divergences in the pathway from iPS to HSC. Briefly, RNA from the differentiation cultures was harvested at multiple time points (Day 0, 4, 8, 12, 15), corresponding to stages of development during in vitro culture and differentiation of pluripotent stem cells to hematopoietic lineages using Differentiation Medium 1. Cells were lysed using Trizol (Life Technologies, Carlsbad Calif.) and RNA was isolated according to manufacturer's specifications. A cDNA library was reverse transcribed using the RNA-to-cDNA Kit from Applied Biosystems (Life Technologies, Carlscad, Calif.). PCR products were amplified using appropriate primers designed for the genes of interest for 40 cycles.
To understand how RA-signaling inhibition with DEAB may lead to increased output of the most primitive blood cells (phenotypic HSCs: CD45+, CD43+, CD34+, CD38−, CD90+, CD45RA−) from pluripotent stem cells without an increase in the total blood (mature cells and progenitors), we performed quantitative gene expression analyses for key development markers at various time points during the differentiation protocol. As the developmental marker genes we surveyed are not known to be direct targets of RA signaling, we can expect the marker gene expression levels to correlate to the cell numbers in culture.

[2] = test system: iPS-derived hematopoietic progenitors and phenotypic HSCs; assay: Differentiation into lymphocytes on OP9 and OP9delta feeder lines, FACS; format: cell-based, human; details: cells generated from iPS cells with DEAB at 10 uM; 14 to 21 days
Method: The differentiation cultures were trypsinized at the indicated time points and single-cell suspensions were generated following trypsinization. For the Colony Forming Unit (CFU) assays using methyl cellulose cultures, 25% of the cells were plated in 2 ml of MethoCult H4435 (STEMCELL Technologies, Vancouver, BC) in six-well plates. Alternatively, sorted CD45+, CD43+, CD34+, 7AAD-cells were sorted and plated at 500 cells per 2 ml Methocult media. Cells were incubated for 14 days in a humidified incubator at 37° C. with 5% CO2 and evaluated for colonies by bright-field microscopy (Zeiss (Oberkochen, Germany, www.zeiss.com) Axiovert 200 with a Zeiss Axiocam), Cells were resuspended in PBS supplemented with 2% FBS. For the lymphoid myeloid differentiation assays, either CD45+, CD43+, CD34+, 7AAD-hematopoietic progenitors, or CD45+, CD43+, CD34+, CD38−, CD90+, CD45RA− phenotypic HSCs were plated at 20-40 cells per well onto OP9 and OP9delta feeder lines for B-cell and T-cell differentiation, respectively, as previously described (Nozad Charoudeh H, Tang Y, Cheng M, Cilio C M, Jacobsen S E, Sitnicka E., Identification of an NK/T cell-restricted progenitor in adult bone marrow contributing to bone marrow- and thymic-dependent NK cell, Blood, 2010 Jul. 15; 116(2):183-92. NK cell differentiation as well as myeloid cell differentiation was also detected in this differentiation system. […]

[3] = DEAB vs DMSO, early time points

Structure (SMILES): CCN(CC)c1ccc(C=O)cc1 [DEAB, 4-diethylaminobenzaldehyde]
- expression of SCL ([1]; DEAB compared to DMSO, Day 15): increased SCL expression
- expression of SCL ([1]; DEAB vs DMSO, Day 8-12): Increased SCL expression with DMSO compared to DEAB
- expression of FOXF1 ([1]; DEAB vs DMSO, Day 8 onward): comparable
- expression of RUNX1 (definitive hematopoietic cell marker) ([1]; DEAB vs DMSO, Day 12-15, FIG. 6I): increased expression
- expression of cardiogenic lateral plate mesoderm marker NKX2.5 ([1]; DEAB vs DMSO, Day 12 onward, FIG. 6G): reduced expression
- expression of FOXC1 ([1]; DEAB vs DMSO, Days 6-12): significantly reduced
- increase in expression of primitive streak mesoderm marker MIXL1 ([1]; DEAB vs DMSO, FIG. 6C): 20%
- expression of endoderm specific marker SOX17 ([1]; DEAB vs DMSO, FIG. 6D): significantly reduced
- CD31 expression (primitive wave endothelial cells) ([1]; DEAB vs DMSO, FIG. 6L): reduced
- expression of ectoderm and neuroectoderm marker PAX6 ([1]; DEAB vs DMSO, early time point, FIG. 6A): reduced expression
- expression of FOXF1 [1, 3]: elevated levels
- expression of FOXC1 [1, 3]: elevated levels
- expression of mesoderm marker Brachyury ([1]; DEAB vs DMSO, first days of differentiation, FIG. 6B): significantly increased
- expression of PAX6 ([1]; DEAB vs DMSO, later time points, FIG. 6A): later equalized
- expression of FLK1 ([1]; DEAB, Day 4): high levels
- expression of RARa ([1]; DEAB, Day 8, FIG. 6N): reduced levels
- expression of RARb ([1]; DEAB, Day 8, FIG. 6O): reduced levels
- expression of APLNR ([1]; DEAB, Day 12, FIG. 6H): expressed highly
- expression of PDGFRA ([1]; DEAB, Day 12, FIG. 6J): downregulated
- expression of FLK1 ([1]; DEAB, Days 12-15): increased
- expression of RA target CD38 by PCR ([1]; DEAB, FIG. 6P): reduction
- ability of generated HSCs to differentiate into lymphoid cells (B, NK, T) [2]: capable of differentiating to each type of tested lymphocyte
